Key:
[1] = system: peptic ulcer; settings: cited from earlier work
[2] = system: peptic ulcer due to pyloric ligation; test: Effect on peptic ulcer due to pyloric ligation; format: in vivo, male rats; settings: 100 mg/kg, intraperitoneal; for Ulcer coefficient: 15 hours after pyloric ligation, control 41.1; for Rate of suppression of ulcer: versus control
Procedure: (1) Effect on peptic ulcer due to pyloric ligation
Six groups (10 animals per group) of male rats weighting 180 to 200 g were subjected to ligation of their pylori under ether-anesthesia after fasting for 48 hours according to the method of Shay et al. (refer to Gastroenterology, 5, page 43 (1945)).
Just after subjecting to ligation, each of the present compound suspended in an aqueous physiological saline solution was intraperitoneally administered to each rat, the control being poured to with an aqueous physiological saline solution. Then, after 15 hours of fasting without taking water, the rats were sacrificed with ether and their stomachs were removed to examine under a microscope for anatomy. The length and width of the thus-formed ulcer in the stomach were determined and expressed by the product (mm^2), and the total sum of the products was represented as the ulcer coefficient.

[3] = system: peptic ulcer due to acetic acid; test: Effect on peptic ulcer due to acetic acid (duodenal); format: in vivo, male rats; settings: for coefficient (ulcer coefficient) / Rate of suppression of ulcer: 100 mg/kg, oral; for coefficient (ulcer coefficient): 3 times a day for 10 days from third day of operation, control 8.0; for Rate of suppression of ulcer: 3 times a day for 10 days, versus control
Excerpt: The inventors of the present invention, taking into account of these situations, added to the above-mentioned method of evaluation the effect of accelerating the cure of the peptic ulcer by orally administering the present compound and a commercialized anti-peptic ulcer medicine, respectivey to rats to which duodenal peptic ulcer due to acetic acid (refer to Okabe, 1971) considered to be most closely resembling to human peptic ulcer has been artificially formed.
(2) Effect on peptic ulcer due to acetic acid
Following the method of Okabe et al (refer to Amer. J. Dig. Dis., 16, […], 6 groups (15 animals per group) of male rats weighing 240 to 260 g were subjected to laparotomy under ether anesthesia in which a metal circular frame was placed on the serosa at a distance of 5 to 7 mm from the duodenal pylorus, 0.06 ml of glacial acetic acid was poured into the frame. After 30 seconds, the liquid containing the acetic acid was removed and then the frame was removed. The test compound suspended in an aqueous physiological saline solution was orally administered to the rat 3 times a day from the third day of the operation for consecutive 10 days. After the administration was over, the rats were sacrificed with ether, and their duodenum was removed to observe under a microscope for anatomy. The length and width of the thus-formed ulcer were measured and their product (expressed with mm^2) was recorded as the ulcer coefficient.

[4] = Acute toxicity test, oral; parameters: species or system Female ICR-mice; settings: mouse, in vivo, mortality observed for a week, Litchfield-Wilcoxon
Procedure: Female ICR-mice of body weight of 20 to 24 g, 5 weeks after birth were used.
Eight animal per group were kept in a transparent polycage at room temperature of 23°±1° C., and RH of 60 to 70%.
After minutely pulverizing each one of the present compounds, the pulverized compound was suspended in an aqueous 5% sodium carboxymethylcellulose solution containing 20% of Tween-80. The aqueous suspension was forcibly orally administered by a metal stomach tube, the dose rate having been adjusted by changing the concentration of the present compound in the aqueous suspension.

| Compound | effect on ulcer-curing ([1]; commercialized medicine) | side effects ([1]; in vivo) | Ulcer coefficient [2] [mm^2] | Rate of suppression of ulcer [2] | coefficient (ulcer coefficient) [3] [mm^2] | Rate of suppression of ulcer [3] [%] | LD50 at 168 h [4] [mg/kg] | Rate of suppression of ulcer ([2]; listed as Positive control) [%] | curative effect / effectiveness (in words) ([3]; acetic acid ulcer) |
| --- | --- | --- | --- | --- | --- | --- | --- | --- | --- |
| CC1(C)[C@@H](OC(=O)CCC(=O)O)CC[C@]2(C)[C@H]3C(=O)C=C4[C@@H]5C[C@@](C)(C(=O)O)CC[C@]5(C)CC[C@@]4(C)[C@]3(C)CC[C@@H]12 [carbenoxolone] | excellent accelerating effect on the ulcer-curing | aldosterone-like side effects to cause hypertension and weakening of muscular function | – | – | – | – | – | – | – |
| COc1cc(C2NC(=O)C(C)S2)cc(OC)c1OC (stereo not shown) [Compound 1, 2-(3,4,5-trimethoxyphenyl)-5-methylthiazolidine-4-one] | – | – | 7.2 | 82.5% | 2.8 | 77.5 | 6400 | – | – |
| COc1ccc(C2NC(=O)C(C)S2)cc1 (stereo not shown) [Compound 4, 2-(4-methoxyphenyl)-5-methylthiazolidine-4-one] | – | – | 4.1 | 90.0% | 1.5 | 81.3 | > 8000 | – | – |
| COc1ccc(C2NC(=O)C(C)S2)cc1OC (stereo not shown) [Compound 2, 2-(3,4-dimethoxyphenyl)-5-methylthiazolidine-4-one] | – | – | 6.5 | 84.2% | 2.4 | 70.0 | > 8000 | – | – |
| CC(C)=CCCC(C)=CCCC(C)=CCCC(=O)OCC=C(C)CCC=C(C)C [gefarnate, 3,7dimethyl-2,6-octadienyl 5,9,13trimethyl-4,8,12-tetradecatrienoate, reference compound] | – | – | 36.1 | about 12% | 6.4 | 20.0 | – | 12.2 | only a slight effectiveness |
| COc1ccccc1C1NC(=O)C(C)S1 (stereo not shown) [Compound 3, 2-(2-methoxyphenyl)-5-methylthiazolidine-4-one] | – | – | 3.6 | 91.2% | 1.3 | 83.8 | > 8000 | – | – |

Reference: US4434172A, “2-Substituted-phenyl-5-alkylthiazolidine-4-one” (priority 1980, dated 1984)
